Laboratory results as given in paper PMC11005723, “Development of Complementary Photo‐arginine/lysine to Promote Discovery of Arg/Lys hPTMs Interactomes” (Advanced Science, 2024).
Non-standard residues stand in square brackets, D forms with d. No end group written: not given here. *: point of attachment. Biotin = O=C1N[C@H]2[C@H](CS[C@H]2CCCCC(=O)*)N1; R(dz) = photo-arginine

System: HEK293T nuclear lysates
Assay: SILAC‐based pull‐down proteomics H4K5me1/H4K5 (probes 6/5)
Type: binding, human
Conditions: for B6 log2 (H4K5me/H4K5): run B6; for C6 log (H4K5me/H4K5): run C6

Substance: probe 6: H4K5me peptide probe with photo‐arginine R(dz) and K(biotin) (SG[R(dz)]GK(Me)GGKGLGKGGK(Biotin))
- proteins recruited (SILAC proteomics H4K5me1/H4K5) (10 µµ probe, 365 nm UV 30 min, streptavidin enrichment, n = 2): could recruit L3MBTL2
- B6 log2 (H4K5me/H4K5) (protein A0A0B4J1Z1 SRSF7): 0.2308
- C6 log (H4K5me/H4K5) (protein A0A0B4J1Z1 SRSF7): 0.1007
- B6 log2 (H4K5me/H4K5) (protein A0A0C4DG89 DDX46): 0.248
- C6 log (H4K5me/H4K5) (protein A0A0C4DG89 DDX46): 0.4939
- B6 log2 (H4K5me/H4K5) (protein A0A0C4DG98 THOC2): 0.2302
- C6 log (H4K5me/H4K5) (protein A0A0C4DG98 THOC2): -0.4085
- B6 log2 (H4K5me/H4K5) (protein A0A2R8Y5G6 DDX3X): 0.1671
- C6 log (H4K5me/H4K5) (protein A0A2R8Y5G6 DDX3X): 0.08362
- B6 log2 (H4K5me/H4K5) (protein A0A2R8Y855 SMARCE1): 0.1691
- C6 log (H4K5me/H4K5) (protein A0A2R8Y855 SMARCE1): 0.1589
- B6 log2 (H4K5me/H4K5) (protein A0A087WWS1 THOC1): 0.1897
- C6 log (H4K5me/H4K5) (protein A0A087WWS1 THOC1): 0.01015
- B6 log2 (H4K5me/H4K5) (protein A0A087X2G1 DDX1): 0.2376
- C6 log (H4K5me/H4K5) (protein A0A087X2G1 DDX1): 0.1483
- B6 log2 (H4K5me/H4K5) (protein B1AK87 CAPZB): 0.2362
- C6 log (H4K5me/H4K5) (protein B1AK87 CAPZB): 0.1912
- B6 log2 (H4K5me/H4K5) (protein C9JFR7 CYCS): 0.1664
- C6 log (H4K5me/H4K5) (protein C9JFR7 CYCS): 0.2306
- B6 log2 (H4K5me/H4K5) (protein E5RJR5 SKP1): 0.2613
- C6 log (H4K5me/H4K5) (protein E5RJR5 SKP1): 0.4362
- B6 log2 (H4K5me/H4K5) (protein E9PCY7 HNRNPH1): 0.1643
- C6 log (H4K5me/H4K5) (protein E9PCY7 HNRNPH1): -0.04567
- B6 log2 (H4K5me/H4K5) (protein E9PHA2 NCAPH): 0.2207
- C6 log (H4K5me/H4K5) (protein E9PHA2 NCAPH): -0.3454
- B6 log2 (H4K5me/H4K5) (protein F5GYN4 OTUB1): 0.1534
- C6 log (H4K5me/H4K5) (protein F5GYN4 OTUB1): -0.02948
- B6 log2 (H4K5me/H4K5) (protein F5H8F7 ASH2L): 0.1889
- C6 log (H4K5me/H4K5) (protein F5H8F7 ASH2L): 0.02508
- B6 log2 (H4K5me/H4K5) (protein F8VRQ1 HNRNPA1): 0.2132
- C6 log (H4K5me/H4K5) (protein F8VRQ1 HNRNPA1): 0.1279
- B6 log2 (H4K5me/H4K5) (protein G3V4C1 HNRNPC): 0.1754
- C6 log (H4K5me/H4K5) (protein G3V4C1 HNRNPC): 0.1012
- B6 log2 (H4K5me/H4K5) (protein G3V529 DDX24): 0.1507
- C6 log (H4K5me/H4K5) (protein G3V529 DDX24): -0.9684
- B6 log2 (H4K5me/H4K5) (protein J3KTA4 DDX5): 0.1484
- C6 log (H4K5me/H4K5) (protein J3KTA4 DDX5): 0.164
- B6 log2 (H4K5me/H4K5) (protein M0R3H0 RPS16): 0.2369
- C6 log (H4K5me/H4K5) (protein M0R3H0 RPS16): -0.3242
- B6 log2 (H4K5me/H4K5) (protein O00567 NOP56): 0.2329
- C6 log (H4K5me/H4K5) (protein O00567 NOP56): 0.2086
- B6 log2 (H4K5me/H4K5) (protein O14980 XPO1): 0.2117
- C6 log (H4K5me/H4K5) (protein O14980 XPO1): -0.03544
- B6 log2 (H4K5me/H4K5) (protein O15042 U2SURP): 0.1992
- C6 log (H4K5me/H4K5) (protein O15042 U2SURP): 0.3265
- B6 log2 (H4K5me/H4K5) (protein O43143 DHX15): 0.2048
- C6 log (H4K5me/H4K5) (protein O43143 DHX15): 0.2816
- B6 log2 (H4K5me/H4K5) (protein O43290 SART1): 0.229
- C6 log (H4K5me/H4K5) (protein O43290 SART1): 0.0852
- B6 log2 (H4K5me/H4K5) (protein O43395 PRPF3): 1.011
- C6 log (H4K5me/H4K5) (protein O43395 PRPF3): 1.011
- B6 log2 (H4K5me/H4K5) (protein O43491 EPB41L2): 0.1873
- C6 log (H4K5me/H4K5) (protein O43491 EPB41L2): 0.1809
- B6 log2 (H4K5me/H4K5) (protein O43719 HTATSF1): 0.2156
- C6 log (H4K5me/H4K5) (protein O43719 HTATSF1): 0.1171
- B6 log2 (H4K5me/H4K5) (protein O43929 ORC4): 0.2071
- C6 log (H4K5me/H4K5) (protein O43929 ORC4): 0.2724
- B6 log2 (H4K5me/H4K5) (protein O60216 RAD21): 0.1881
- C6 log (H4K5me/H4K5) (protein O60216 RAD21): 0.2602
- B6 log2 (H4K5me/H4K5) (protein O60934 NBN): 0.1747
- C6 log (H4K5me/H4K5) (protein O60934 NBN): 0.1942
- B6 log2 (H4K5me/H4K5) (protein O75525 KHDRBS3): 0.1909
- C6 log (H4K5me/H4K5) (protein O75525 KHDRBS3): 0.05512
- B6 log2 (H4K5me/H4K5) (protein O95202 LETM1): 0.2397
- C6 log (H4K5me/H4K5) (protein O95202 LETM1): 0.3564
- B6 log2 (H4K5me/H4K5) (protein O95218 ZRANB2): 0.1711
- C6 log (H4K5me/H4K5) (protein O95218 ZRANB2): 0.2764
- B6 log2 (H4K5me/H4K5) (protein O95456 PSMG1): 0.8105
- C6 log (H4K5me/H4K5) (protein O95456 PSMG1): 0.8105
- B6 log2 (H4K5me/H4K5) (protein O95983 MBD3): 0.1485
- C6 log (H4K5me/H4K5) (protein O95983 MBD3): 0.1715
- B6 log2 (H4K5me/H4K5) (protein P06748 NPM1): 0.1928
- C6 log (H4K5me/H4K5) (protein P06748 NPM1): 0.1848
- B6 log2 (H4K5me/H4K5) (protein P07900 HSP90AA1): 0.1623
- C6 log (H4K5me/H4K5) (protein P07900 HSP90AA1): 0.0357
- B6 log2 (H4K5me/H4K5) (protein P09661 SNRPA1): 0.1608
- C6 log (H4K5me/H4K5) (protein P09661 SNRPA1): 0.0265
- B6 log2 (H4K5me/H4K5) (protein P11142 HSPA8): 0.1602
- C6 log (H4K5me/H4K5) (protein P11142 HSPA8): 0.128
- B6 log2 (H4K5me/H4K5) (protein P11388 TOP2A): 0.1715
- C6 log (H4K5me/H4K5) (protein P11388 TOP2A): -0.2242
- B6 log2 (H4K5me/H4K5) (protein P12004 PCNA): 0.186
- C6 log (H4K5me/H4K5) (protein P12004 PCNA): 0.08942
- B6 log2 (H4K5me/H4K5) (protein P19338 NCL): 0.2437
- C6 log (H4K5me/H4K5) (protein P19338 NCL): 0.2101
- B6 log2 (H4K5me/H4K5) (protein P22061 PCMT1): 0.8673
- C6 log (H4K5me/H4K5) (protein P22061 PCMT1): 0.8673
- B6 log2 (H4K5me/H4K5) (protein P22087 FBL): 0.1734
- C6 log (H4K5me/H4K5) (protein P22087 FBL): 0.2534
- B6 log2 (H4K5me/H4K5) (protein P22102 GART): 0.1557
- C6 log (H4K5me/H4K5) (protein P22102 GART): -0.03854
- B6 log2 (H4K5me/H4K5) (protein P25398 RPS12): 0.2482
- C6 log (H4K5me/H4K5) (protein P25398 RPS12): 0.204
- B6 log2 (H4K5me/H4K5) (protein P29692 EEF1D): 0.1672
- C6 log (H4K5me/H4K5) (protein P29692 EEF1D): -0.1339
- B6 log2 (H4K5me/H4K5) (protein P31153 MAT2A): 0.1703
- C6 log (H4K5me/H4K5) (protein P31153 MAT2A): 0.05667
- B6 log2 (H4K5me/H4K5) (protein P42166 TMPO): 0.2154
- C6 log (H4K5me/H4K5) (protein P42166 TMPO): 0.1594
- B6 log2 (H4K5me/H4K5) (protein P46109 CRKL): 0.2247
